Measured values as given in patent publication US20250295725A1, “BONE TARGETED TREATMENT IN OSTEOGENESIS IMPERFECTA” (PURDUE RESEARCH FOUNDATION, priority 2022, published 2025).

Experiments:
Type in all cases: in vivo
[1] = test system: Colla2^oim mouse model of type 1(+/−) OI; experiment: 4-point bend to failure of the fractured femurs, 12 week old type 1 OI mice; settings: for increase in max load it takes a bone to fracture as compared to control: fractured femurs, daily subcutaneously 38 nmol/kg/d for 5 weeks, Type 1 OI mice treated (FIG. 18)
Procedure: (§1) FIGS. 13 and 14 show the impact of treatment with Compound 1 on bone fracture stiffness in a Colla2^oim mouse model of type 3(−/−) and type 1(−/+) osteogenesis Imperfecta. After reaching skeletal maturity, 12 weeks old female mice underwent a stabilized midshaft femur fracture model via an osteotomy and type 1 and Type 3 OI mice were treated twice a week for 5 and 6 weeks respectively post fracture. Fracture strength was evaluated via 4-point bend to failure of the fractured femurs. Modulus evaluates the stiffness of the femur during the biomechanical evaluation. A low stiffness is indicative of brittleness that leads to leads to future fractures. The improvement in stiffness that occurred in the fracture callus are indicative of a healthier bone that is less brittle and will be less likely to fracture in the future. In some instances, low bone stiffness is indicative of brittleness in the bone, such as being associated with higher risk of fracture. In some instances, higher bone stiffness is indicative of healthier bone, such as bone that is less brittle and less prone to fracture. In some instances, the majority of the compound localized into the fracture callus (e.g., due to the large amounts of exposed hydroxyapatite at the fracture site and that DE20 can bind to hydroxyapatite via chelation of the calcium component). In some instances, the elevated sites of resorption throughout the OI type 3 skeleton also had some moderate accumulation (e.g., which was responsible for the non-fracture skeletal improvements observed in FIGS. 13 and 14).
After reaching skeletal maturity, 12 weeks old female mice underwent a stabilized midshaft femur fracture model via an osteotomy. Type 1 and Type 3 OI mice were treated twice a week for 5 weeks and 6 weeks respectively post fracture. Fracture strength was evaluated via 4-point bend to failure of the fractured femurs. The contralateral untreated femurs are presented here to show the restoration to previous non-fracture strength during treatment. […] Further, Compound 1 increases the max load (in Newtons) it takes a bone to fracture in mice with Type 1 OI by approximately 70% (as compared to bone with saline). […]

[2] = test system: Colla2^oim mouse model of type 1(+/−) OI; experiment: 4-point bend to failure of the non-fractured contralateral femurs, type 1 OI mice
Procedure: FIGS. 11 and 12 show the impact of treatment with Compound 1 on bone strength in a Colla2^0im mouse model of type!(+/−) OI. 12 week old female mice underwent a stabilized midshaft femur fracture model via an osteotomy. Type 1 OI mice were treated twice a week for 5 weeks post fracture. Bone strength was evaluated via 4-point bend to failure of the non-fractured contralateral femurs. The max load (FIG. 11) evaluates the max load the femur withstood prior to fracture in the biomechanical evaluation. Work to fracture (FIG. 12) evaluates the total amount of energy the femur adsorbed prior to fracture in the biomechanical evaluation. Bone targeted anabolic treatment dramatically improves bone strength in the contralateral femurs.
FIGS. 19 and 20 show the impact of treatment with Compound 3 on bone strength in a Colla2^oim mouse model of type 1(+/−) OI. 12 week old female mice underwent a stabilized midshaft femur fracture model via an osteotomy. Type 1 OI mice were treated daily subcutaneously for 5 weeks post fracture. Bone strength was evaluated via 4-point bend to failure of the non-fractured contralateral femurs. The max load (FIG. 19) evaluates the max load the femur withstood prior to fracture in the biomechanical evaluation. Work to fracture (FIG. 20) evaluates the total amount of energy the femur adsorbed prior to fracture in the biomechanical evaluation. Bone targeted anabolic treatment dramatically improves bone strength in the contralateral femurs.

[3] = test system: Colla2^oim mouse model of type 3(−/−) OI; experiment: Fracture callus mineralization by MicroCT after stabilized midshaft femur fracture (osteotomy), type 3 OI mice
Procedure: In some instances, ability of an anabolic linked to a hydroxyapatite ligand to accelerate the repair of fractures in a Type 3 OI disease state was analyzed. Type 3 is the most severe non-lethal form of OI and experiences the most fractures in the human population. In some instances, Type 3 was modeled in a Colla2oim (−/−) mouse (e.g., which is a well-established model of OI Type 3), such as described elsewhere herein (e.g., see the examples). In some instances, the compound is distally administered and accumulates locally at a fracture site.
After reaching skeletal maturity, 12 weeks old female mice underwent a stabilized midshaft femur fracture model via an osteotomy. Type 3 OI mice were treated twice a week 6 weeks post fracture. Fracture callus mineralization was evaluated via quantification of high resolution MicroCT(scanco) images of the fracture callus.
(§2) After reaching skeletal maturity, 12 weeks old female mice underwent a stabilized midshaft femur fracture model via an osteotomy. Type 1 and Type 3 OI mice were treated twice a week for 5 weeks and 6 weeks respectively post fracture. Fracture callus mineralization was evaluated via quantification of high resolution MicroCT(scanco) images of the fracture callus.
(§3) In vivo experiments were conducted in heterozygous and homozygous Colla2^oim (Type 1 OI (+/−) and Type 3 OI (−/−)) mice of both genders. After reaching skeletal maturity, 12 weeks old female and/or male mice underwent a stabilized midshaft femur fracture model via an osteotomy. OI mice were subcutaneously treated (with saline control or a compound provided herein, such as Ab46-D-Glu20) twice a week 5 or 6 weeks post fracture. Following a 5-week study in heterozygous mice and 6-week in homozygous mice, fracture callus mineralization/densities were measured using quantification of high resolution MicroCT(scanco) images of the fracture callus.

[4] = test system: Colla2^oim mouse model of type 1(+/−) OI; experiment: Fracture callus mineralization by MicroCT after stabilized midshaft femur fracture (osteotomy), type 1 OI mice
Procedure: as §2
After reaching skeletal maturity, 12 weeks old mice underwent a stabilized midshaft femur fracture model via an osteotomy. Type 1 OI mice were treated daily subcutaneously for 5 weeks post fracture. Fracture callus mineralization was evaluated via quantification of high resolution MicroCT(scanco) images of the fracture callus. In some instances, mice were dosed (daily) with 38 nmol/kg/d of Compound 4, Compound 3, or PBS vehicle control.
as §2, with “maturity” for “maturity,”, “old” for “old female”, “1” for “1 and Type 3”, “daily subcutaneously” for “twice a week”, “weeks” for “weeks and 6 weeks respectively”
as §3

[5] = test system: Colla2^oim mouse model of type 1(+/−) OI; experiment: 4-point bend to failure of the fractured femurs, 6 week old pediatric type 1 OI mice; settings: 6 week old pediatric mice
Procedure: In some instances, OI affects children from birth and many of the fractures in an individual's life with OI occurring during adolescence. In some embodiments, the individual has pediatric OI. FIGS. 7 and 8 show the impact of treatment with Compound 1 on bone fracture strength in a Colla2^oim mouse model of type 1(+/−) OI. 6 week old pediatric Mice underwent a stabilized midshaft femur fracture model via an osteotomy. Type 1 OI mice were treated twice a week for 4 weeks post fracture. Fracture strength was evaluated via 4-point bend to failure of the fractured femurs. The max load (FIG. 7) evaluates the max load the femur withstood prior to fracture in the biomechanical evaluation. Work to fracture (FIG. 8) evaluates the total amount of energy the femur adsorbed prior to fracture in the biomechanical evaluation.

[6] = test system: Colla2^oim mouse model of type 3(−/−) OI; experiment: 4-point bend to failure of the fractured femurs, type 3 OI mice
Procedure: (§4) After reaching skeletal maturity, 12 weeks old female mice underwent a stabilized midshaft femur fracture model via an osteotomy. Type 3 OI mice were treated twice a week for 6 weeks post fracture. Fracture strength was evaluated via 4-point bend to failure of the fractured femurs. The max load evaluates the max load the femur withstood prior to fracture in the biomechanical evaluation. The contralateral untreated femurs are presented here to show the restoration to previous non-fracture strength during treatment.
as §4, with “Work to fracture” for “The max load”, “total amount of energy” for “max load”, “adsorbed” for “withstood”
as §1
After reaching skeletal maturity, 12 weeks old female mice underwent a stabilized midshaft femur fracture model via an osteotomy. Type 1 and Type 3 OI mice were treated twice a week for 5 weeks and 6 weeks respectively post fracture. Fracture strength was evaluated via 4-point bend to failure of the fractured femurs. The contralateral untreated femurs are presented here to show the restoration to previous non-fracture strength during treatment. […] Further, Compound 1 increases the max load (in Newtons) it takes a bone to fracture in mice with Type 1 OI by approximately 70% (as compared to bone with saline).

[7] = 12 weeks old mice, daily subcutaneously 38 nmol/kg/d for 5 weeks (FIG. 17)

AVSEHQLLHDKGKSIQDLRRRELLEKLLxKLHTAEIRATSEVSPNSeeeeeeeeeeeeeeeeeeee [Compound 1]
more max load to fracture than fractured bone in control mice ([1]; Type 1 OI, 12 week old female mice, twice a week 5 weeks (FIG. 10)): 80%
more max load to fracture than fractured bone in control mice ([1]; Type 1 OI, 12 week old male mice, twice a week 5 weeks (FIG. 9)): approximately 70%
increase in max load it takes a bone to fracture as compared to bone with saline ([1]; Type 1 OI, 12 weeks old female mice, twice a week 5 weeks (FIG. 5)): approximately 70%
more stiff (modulus) than fractured bone of control mice ([1]; Type 1 OI, fractured bone, twice a week 5 weeks (FIG. 14)): approximately 60%
differential response between sexes (fracture strength) ([1]; Type 1 OI, male vs female mice, twice a week 5 weeks (FIGS. 9, 10)): No differential response between sexes
more stiff (modulus) than unfractured bone of control mice ([1]; Type 1 OI, treated fractured bone vs unfractured control bone (FIG. 14)): approximately 10%
more max load to fracture, non-fractured bone vs control mice ([2]; non-fractured contralateral femurs, twice a week 5 weeks (FIG. 11)): approximately 30%
higher work to fracture, non-fractured bone vs control mice ([2]; non-fractured contralateral femurs, twice a week 5 weeks (FIG. 12)): approximately 40%
radiographic healing over the control ([3]; Colla2oim mouse model): significant improvement
improved fracture callus mineralization as compared to the saline control ([3]; Type 3 OI, 12 weeks old female mice, treated twice a week 6 weeks post fracture (FIG. 1, FIG. 4)): approximately 100%
median microCT images of fractured bones vs saline control ([3]; fractured bones of FIGS. 4 and 5 (Type 1 and Type 3 OI), composite of 20 microCT slices (FIG. 6)): healthier and denser bone
increase in bone volume fraction over the saline groups ([3]; mice administered compound vs saline groups): > 85%
improved fracture callus mineralization as compared to the saline control ([4]; 12 weeks old female mice, treated twice a week 5 weeks post fracture (FIG. 4)): approximately 50%
higher max load to fracture than saline control ([5]; twice a week 4 weeks (FIG. 7)): approximately 160%
higher work to fracture than saline control ([5]; twice a week 4 weeks (FIG. 8)): approximately 80%
force required to refracture bone ([6]; Colla2oim mouse model, mechanical testing): dramatically higher force
more stiff (modulus) than fractured bone of control mice ([6]; Type 3 OI, fractured bone, twice a week 6 weeks (FIG. 13)): approximately 100%
increase in max load it takes a bone to fracture as compared to saline bone ([6]; Type 3 OI, fractured femur, twice a week 6 weeks (FIG. 2, FIG. 5)): approximately 300%
increase in work to fracture as compared to bone repaired with saline ([6]; Type 3 OI, fractured femur, twice a week 6 weeks (FIG. 3)): approximately 150%
more stiff (modulus) than non-fractured bone of control mice ([6]; Type 3 OI, treated fractured bone vs non-fractured control bone (FIG. 13)): approximately 50%
increase in work to fracture as compared to non-fractured bone ([6]; Type 3 OI, treated fractured femur vs non-fractured bone (FIG. 3)): approximately 70%

eeeeeeeeee(AEEA)4 DLTIDDSYWYRI (EEEEEEEEEEXDLTIDDSYWYRI; D-Glu targeting ligand, 4 AEEA spacer; SITE 1..10 D-glutamic acid; SITE 11 2,2-amino ethoxy ethoxy acetic acid; REPEAT 11 repeated 4 times) [Compound 4, Ln2_P3 motif with N-terminally-attached 4-mini-PEG spacer and D-glutamic acid targeting ligand]
increase in max load it takes a bone to fracture as compared to control [1]: approximately 200%
improved fracture callus mineralization as compared to the saline control [4, 7]: approximately 200%

AVSEHQLLHDKGKSIQDLIUGTFFLHHLIAEIHTAEnLATSEVSPNSeeeeeeeeeeeeeeeeeeee [Compound 3]
increase in max load it takes a bone to fracture as compared to control [1]: approximately 100%
more max load to fracture than bone in control mice ([2]; contralateral femurs, daily subcutaneously 5 weeks (FIG. 19)): approximately 10%
higher work to fracture, non-fractured bone vs control mice ([2]; non-fractured contralateral femurs, daily subcutaneously 5 weeks (FIG. 20)): approximately 40%
improved fracture callus mineralization as compared to the saline control [4, 7]: approximately 300%
